Assay results reported in patent US8519124B2, “Chemokine receptor antagonists and use thereof” (Ono Pharmaceutical Co., Ltd., priority 2005, dated 2013).

Assays:
CXCR4 = biological target: T1, CXCR4 (Homo sapiens, UniProt P61073); assay: Study for inhibition of binding human SDF-1 to CEM cells (125I-SDF-1); conditions: 125I-SDF-1 binding to CEM cells
T1 construct: a human T cell strain in which CXCR4 is known to be expressed; endogenous in cells; host or cells: CEM cells (human T cell strain)
From the text: Specifically, as a system of screening a compound that inhibits the binding between SDF-1 and CXCR4, for example a system of measuring the binding between iodine-labeled SDF-1 and a human T cell strain in which CXCR4 is known to be expressed is operable. The identical idea is possible since macrophage (R5) HIV and RANTES, MIP-1α, and MIP-1β all bind to CCR5.
Study for Inhibition of Binding Human SDF-1 to CEM Cells
To human T cell strain CEM cells in a binding buffer (containing HEPES and BSA), the test compound and ^125I-SDF-1 (NEN) were added and the mixture was incubated at 4° C. for 60 minutes. The reacted CEM cells were rapidly filtrated with a GF/B membrane filter plate (Packard) to adsorb. The plate was washed with PBS three times and then dried. Microscint+20 (Packard) was added thereto. An amount of the radioactivity bound to the CEM cells was measured using Top Count (Packard) and inhibition (%) of the test compound was calculated according to the following equation: Inhibition={(Et−Ea)/(Et−Ec)}×100
Et: amount of radioactivity when the test compound is not added,
Ec: amount of radioactivity when non-radioactive SDF-1 (Pepro Tech) is added in an amount of 1000 times as much as ^125I-SDF-1 as a test compound, and
Ea: amount of radioactivity when the test compound is added.

[1] = system: DOPA liposome (artificial lipid membrane); assay: Artificial lipid membrane binding by using Biacore S51 system; conditions: 50 μM compound; for Judgement (phospholipidosis inductive effect): DOPA liposome; for Corrected value of binding response (RU): DOPA liposome on Sensor Chip L1, 37° C., PBS/5% DMSO (pH 7.4 or PH 6.0)
Method: Artificial Lipid Membrane Binding Account by Using Biacore (Registered Trademark) S51 System
10 mM of 1,2-Dioleoyl-sn-Glycero-3-Phosphate, Monosodium Salt (hereinafter abbreviated as DOPA) chloroform solution was evaporated to dryness by means of an aspirator, and 0.6 mL of PBS/5% dimethyl sulfoxide (hereinafter abbreviated as DMSO) was added. The chloroform solution was fully suspended by means of a vortex mixer, and the freezing and thawing were repeated for 5 times. Liposome was created by means of a liposome adjustment instrument (manufactured by Avestin Inc.) and 2 syringes, and was diluted to 0.5 mM with PBS/5% DMSO just prior to immobilization.
(ii) Measurement Compound Adjustment
The 38 μL of 1×PBS is added to 2 μL DMSO solution (10 mM), and further the 360 μL 1×PBS/5% DMSO was added; the 50 μM of final concentration in the 1×PBS/5% DMSO was adjusted and measured.
All of the following analysis used Biacore® S51 system; the measurement conditions were set by Biacore S51 Control Soft.
The measurement temperature was set to be 37° C., and the 1×PBS/5% DMSO (pH 7.4 or PH 6.0) was used as a buffer. Series S Sensor Chip L1 was used for a sensor chip. The DOPA was immobilized in one of the measuring spots on the sensor surface, and the central spot was used as a reference.
Immobilization of liposome was conducted at a flow rate of 10 μL/min for about 3 minutes; then the compound was added at a flow rate of 30 μL/min and the interaction was measured. The measurement conditions are as follows:
Assay buffer: PBS/5% DMSO (pH 7.4 or PH 6.0)
Measurement temperature: 37° C.
Sensor chip: Series S Sensor Chip L1
Flow rate: 10 μL/min at the time of the liposome immobilization; 30 μL/min at the time of the measurement of interaction with the compound
Regeneration: 20 mM CHAPS (3-[(3-Cholamidopropyl)dimethylammonio]-1-propanesulfonate), Isopropanol/50 mM sodium hydroxide solution=40/60 (volume ratio) mixture (60 seconds)
The data processing was conducted by means of method of Abdiche et al. (Analytical biochemistry, 328, 233-243 (2004)) by using Biacore S51 Evaluation Soft.
Regarding the value of binding response (RU) in which the value of reference was subtracted, it was divided by a sample molecular weight after minute error of the DMSO concentration included in the sample solution was corrected. In addition, the value obtained here was divided by an amount of capture at the time of the cycle because the value obtained here was proportional to the amount of capture of the liposome; further, the value was multiplied by a million to be considered as a corrected value (Corrected value=1000000)×RU (test compound)/molecular quantity (test compound) RU (liposome)).
Propranolol, Amiodarone, Desipramine, Imipramine and Procaine were added as the controls, and it was recognized that the variation of the binding response was within ca. 10 to 15%.
The compound, in which a value of the binding response after the correction was equal to or more than 150, was determined as positive.

T1 sequence (P61073 whole entry): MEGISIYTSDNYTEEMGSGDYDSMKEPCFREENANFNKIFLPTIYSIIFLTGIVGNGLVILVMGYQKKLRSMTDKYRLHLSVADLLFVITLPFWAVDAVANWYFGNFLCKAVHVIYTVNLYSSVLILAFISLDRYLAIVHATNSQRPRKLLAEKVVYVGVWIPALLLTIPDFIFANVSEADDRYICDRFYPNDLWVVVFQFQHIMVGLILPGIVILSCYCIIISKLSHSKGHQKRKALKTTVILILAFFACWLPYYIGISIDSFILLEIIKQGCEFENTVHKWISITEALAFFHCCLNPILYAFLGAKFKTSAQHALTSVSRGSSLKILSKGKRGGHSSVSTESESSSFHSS

CC(C)CN1CCC2(CCN(Cc3ccc(C(=O)N(Cc4ncc[nH]4)Cc4ncc[nH]4)cc3)CC2)C1 [Example 8 (113), N,N-bis(1H-imidazol-2-ylmethyl)-4-[(2-isobutyl-2,8-diazaspiro[4.5]dec-8-yl)methyl]benzamide]
IC50 (CXCR4): 15 nM
Judgement (phospholipidosis inductive effect) [1]: negative
Corrected value of binding response (RU) [1]: 66.6 RU

CC(C)(C)CN1CCC2(CC1)CCN(C(=O)Cc1ccc(CN(Cc3ncc[nH]3)Cc3ncc[nH]3)cc1)C2 [Example 40 (68), 1-(4-{2-[8-(2,2-dimethylpropyl)-2,8-diazaspiro[4.5]dec-2-yl]-2-oxoethyl}phenyl)-N,N-bis(1H-imidazol-2-ylmethyl)methanamine]
Judgement (phospholipidosis inductive effect) [1]: negative
Corrected value of binding response (RU) [1]: 77.6 RU

CCC(CC)N1CCC2(CCN(C(=O)c3ccc(CN(Cc4ncc[nH]4)Cc4nccn4C)cc3)C2)CC1 [Example 40 (72), 1-(4-{[8-(1-ethylpropyl)-2,8-diazaspiro[4.5]dec-2-yl]carbonyl}phenyl)-N-(1H-imidazol-2-ylmethyl)-N-[(1-methyl-1H-imidazol-2-yl)methyl]methanamine]
Judgement (phospholipidosis inductive effect) [1]: negative
Corrected value of binding response (RU) [1]: 72.0 RU

O=C(CC(=O)N1CCC2(CCN(C3CCCCC3)CC2)C1)N1CCC(N(Cc2ncc[nH]2)Cc2ncc[nH]2)CC1 [Example 65 (4), 1-[3-(8-cyclohexyl-2,8-diazaspiro[4.5]dec-2-yl)-3-oxopropanoyl]-N,N-bis(1H-imidazol-2-ylmethyl)-4-piperidinamine]
Judgement (phospholipidosis inductive effect) [1]: negative
Corrected value of binding response (RU) [1]: 36.0 RU
